Measurements taken from patent US9056876B2, “Substituted 1H-pyrazolo[3′,4′,4,5]thieno[2,3-b]pyridin-3-amine analogs as positive allosteric modulators of the muscarinic acetylcholine receptor M4” (VANDERBILT UNIVERSITY, priority 2011, dated 2015).

Molecular target: T1, mAChR M4 (UniProt P08173)
T1 construct: hM1 and hM4 cDNAs were purchased from Missouri S&T cDNA Resource
T1 sequence (P08173 1-479): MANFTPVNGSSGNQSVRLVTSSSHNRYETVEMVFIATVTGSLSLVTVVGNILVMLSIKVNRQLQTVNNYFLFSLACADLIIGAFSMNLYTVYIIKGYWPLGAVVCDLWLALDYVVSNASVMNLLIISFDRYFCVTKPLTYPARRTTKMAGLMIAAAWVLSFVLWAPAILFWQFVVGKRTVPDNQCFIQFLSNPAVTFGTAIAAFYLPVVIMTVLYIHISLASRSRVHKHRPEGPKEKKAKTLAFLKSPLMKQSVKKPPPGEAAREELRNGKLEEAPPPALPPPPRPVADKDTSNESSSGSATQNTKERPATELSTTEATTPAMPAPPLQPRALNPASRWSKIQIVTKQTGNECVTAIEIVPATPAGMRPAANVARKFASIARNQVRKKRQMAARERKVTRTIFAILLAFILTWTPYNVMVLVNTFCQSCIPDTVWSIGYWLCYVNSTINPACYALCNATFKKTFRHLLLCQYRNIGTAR
Assay: mAChR M4 cell-based functional assay (calcium mobilization, Fluo-4, FDSS)
Conditions: for Emax (%)*: % ACh maximum at 30 μM; for pEC50: positive allosteric modulator activity, EC20 acetylcholine response; for pEC50 / EC50: CHO-K1 cells; for EC50: positive allosteric modulator activity: concentration-dependent increase in the EC20 acetylcholine response, >10 μM estimated for low potency (no plateau)
Text: Chinese hamster ovary (CHO-K1) cells stably expressing rat (r)M1 were purchased from the American Type Culture Collection and cultured according to their indicated protocol. CHO cells stably expressing human (h)M2, hM3, and hM5 were described previously (Levey A I, et al., (1991) J Neurosci 11:3218-3226.); hM1 and hM4 cDNAs were purchased from Missouri S&T cDNA Resource; rM4 cDNA was provided by T. I. Bonner (National Institutes of Health, Bethesda, Md.). rM2 and rM3 were cloned from a rat brain cDNA library and sequence verified. hM1, rM2, rM3, hM4, and rM4 cDNAs were used to stably transfect CHO-K1 cells purchased from the American Type Culture Collection using Lipofectamine-2000. To make stable rM2, hM2, rM3, hM4, and rM4 cell lines for use in calcium mobilization assays, these cells also were stably transfected with a chimeric G-protein (Gqi5) (provided by B. R. Conklin, University of California, San Francisco) using Lipofectamine 2000. rM1, hM1, rM3, hM3, rM5, and hM5 cells were grown in Ham's F-12 medium containing 10% heat-inactivated fetal bovine serum (FBS), 20 mM HEPES, and 50 µg/mL G418 sulfate. rM2-Gqi5, hM2-Gqi5, and hM4-Gqi5 cells were grown in the same medium also containing 500 µg/mL Hygromycin B. Stable rM4-Gqi5 cells were grown in DMEM containing 10% heat-inactivated FBS, 20 mM HEPES, 400 µg/mL G418 sulfate, and 500 µg/mL Hygromycin B.
For high throughput measurement of agonist-evoked increases in intracellular calcium, CHO-K1 cells stably expressing the target muscarinic receptor were plated in growth medium lacking G418 and hygromycin at 15,000 cells/20 μL/well in Greiner 384-well black-walled, tissue culture (TC)-treated, clear-bottom plates (VWR). Cells were incubated overnight at 37° C. and 5% CO2. The next day, cells were washed using an ELX 405 (BioTek) with four washes (80 μL) of assay buffer then aspirated to 20 μL. Next, […] of 16 μM Fluo-4/acetoxymethyl ester (Invitrogen, Carlsbad, Calif.) prepared as a 2.3 mM stock in DMSO and mixed in a 1:1 ratio with 10% (w/v) Pluronic F-127 and diluted in assay buffer was added to the wells and the cell plates were incubated for 50 min at 37° C. and 5% CO2. Dye was removed by washing with the ELX 405 (four 80 μL washes of assay buffer) then aspirated to 20 μL. Compound master plates were formatted in an 11 point CRC format (1:3 dilutions) in 100% DMSO with a starting concentration of 10 mM using the BRAVO liquid handler (Agilent). Test compound CRCs were then transferred to daughter plates (240 nL) using the Echo acoustic plate reformatter (Labcyte, Sunnyvale, Calif.) and then diluted into assay buffer (40 μL) to a 2× stock using a Thermo Fisher Combi (Thermo Fisher Scientific, Waltham, Mass.).
Calcium flux was measured using the Functional Drug Screening System (FDSS) 6000 (Hamamatsu Corporation, Tokyo, Japan) as an increase in the fluorescent static ratio. Compounds were applied to cells (20 μL, 2×) using the automated system of the FDSS 6000 at 4 s into the 300 s protocol and the data were collected at 1 Hz. At 144 s into the 300 s protocol, 10 μL of an EC20 concentration of the muscarinic receptor agonist acetylcholine was added (5×), followed by the addition of 12 μL an EC80 concentration of acetylcholine at the 230 s time point (5×). Agonist activity was analyzed as a concentration-dependent increase in calcium mobilization upon compound addition. Positive allosteric modulator activity was analyzed as a concentration-dependent increase in the EC20 acetylcholine response. Antagonist activity was analyzed as a concentration-dependent decrease in the EC80 acetylcholine response. Concentration-response curves were generated using a four-parameter logistical equation in XLfit curve fitting software (IDBS, Bridgewater, N.J.) for Excel (Microsoft, Redmond, Wash.) or Prism (GraphPad Software, Inc., San Diego, Calif.). […]

| Emax (%)* | pEC50 | EC50 | Structure (SMILES) |
| --- | --- | --- | --- |
| 50% | 6.07 | 850 nM | Cc1nc2sc3c(N)nn(C)c3c2c(C)c1Cl [Compound 23, 7-chloro-1,6,8-trimethyl-1H-pyrazolo[3′,4′:4,5]thieno[2,3-b]pyridin-3-amine] |
| 61% | <5.00 | > 10000 nM | Cc1nc2sc3c(NCCC(C)C)nn(C)c3c2c(C)c1Cl [Compound 24, 7-chloro-N-isopentyl-1,6,8-trimethyl-1H-pyrazolo[3′,4′:4,5]thieno[2,3-b]pyridin-3-amine] |
| 57% | 6.66 | 220 nM | Cc1nc2sc3c(NCc4ccco4)nn(C)c3c2c(C)c1Cl [Compound 25, 7-chloro-N-(furan-2-ylmethyl)-1,6,8-trimethyl-1H-pyrazolo[3′,4′:4,5]thieno[2,3-b]pyridin-3-amine] |
| 42% | <5.00 | > 10000 nM | Cc1nc2sc3c(NCc4cccs4)nn(C)c3c2c(C)c1Cl [Compound 26, 7-chloro-1,6,8-trimethyl-N-(thiophen-2-ylmethyl)-1H-pyrazolo[3′,4′:4,5]thieno[2,3-b]pyridin-3-amine] |
| 46% | <5.00 | > 10000 nM | Cc1nc2sc3c(NCc4ccc(F)c(F)c4)nn(C)c3c2c(C)c1Cl [Compound 27, 7-chloro-N-(3,4-difluorobenzyl)-1,6,8-trimethyl-1H-pyrazolo[3′,4′:4,5]thieno[2,3-b]pyridin-3-amine] |
| 36% | <5.00 | > 10000 nM | Cc1ccnc(Nc2nn(C)c3c2sc2nc(C)c(Cl)c(C)c23)n1 [Compound 28, 7-chloro-1,6,8-trimethyl-N-(4-methylpyrimidin-2-yl)-1H-pyrazolo[3′,4′:4,5]thieno[2,3-b]pyridin-3-amine] |
| 49% | <5.00 | > 10000 nM | Cc1cc(C)c2c(n1)sc1c(N)nn(C)c12 [Compound 29, 1,6,8-trimethyl-1H-pyrazolo[3′,4′:4,5]thieno[2,3-b]pyridin-3-amine] |
| 73% | 6.80 | 160 nM | Cc1cc(C)c2c(n1)sc1c(NCC3CC3)nn(C)c12 [Compound 30, N-(cyclopropylmethyl)-1,6,8-trimethyl-1H-pyrazolo[3′,4′:4,5]thieno[2,3-b]pyridin-3-amine] |
| 81% | 6.72 | 190 nM | Cc1cc(C)c2c(n1)sc1c(NCCC(C)C)nn(C)c12 [Compound 32, N-isopentyl-1,6,8-trimethyl-1H-pyrazolo[3′,4′:4,5]thieno[2,3-b]pyridin-3-amine] |
| 75% | 6.89 | 130 nM | Cc1cc(C)c2c(n1)sc1c(NCc3ccccc3)nn(C)c12 [Compound 33, N-benzyl-1,6,8-trimethyl-1H-pyrazolo[3′,4′:4,5]thieno[2,3-b]pyridin-3-amine] |
| 81% | 7.07 | 86 nM | Cc1cc(C)c2c(n1)sc1c(NCc3cccs3)nn(C)c12 [Compound 34, 1,6,8-trimethyl-N-(thiophen-2-ylmethyl)-1H-pyrazolo[3′,4′:4,5]thieno[2,3-b]pyridin-3-amine] |
| 80% | 5.92 | 1200 nM | Cc1cc(C)c2c(n1)sc1c(NCc3ccco3)n[nH]c12 [Compound 35, N-(furan-2-ylmethyl)-6,8-dimethyl-1H-pyrazolo[3′,4′:4,5]thieno[2,3-b]pyridin-3-amine] |
| 78% | 6.20 | 630 nM | Cc1cc(C)c2c(n1)sc1c(NCc3cccs3)n[nH]c12 [Compound 36, 6,8-dimethyl-N-(thiophen-2-ylmethyl)-1H-pyrazolo[3′,4′:4,5]thieno[2,3-b]pyridin-3-amine] |
| 53% | 5.43 | 3700 nM | Cc1cc(C)c2c(n1)sc1c(NCC(C)C)n[nH]c12 [Compound 37, N-isobutyl-6,8-dimethyl-1H-pyrazolo[3′,4′:4,5]thieno[2,3-b]pyridin-3-amine] |
| 72% | 6.66 | 220 nM | COc1ccc(CNc2nn(C)c3c2sc2nc(C)cc(C)c23)cc1 [Compound 38, N-(4-methoxybenzyl)-1,6,8-trimethyl-1H-pyrazolo[3′,4′:4,5]thieno[2,3-b]pyridin-3-amine] |
| 68% | 6.30 | 500 nM | Cc1cc(C)c2c(n1)sc1c(NCc3ccc(F)cc3)nn(C)c12 [Compound 39, N-(4-fluorobenzyl)-1,6,8-trimethyl-1H-pyrazolo[3′,4′:4,5]thieno[2,3-b]pyridin-3-amine] |
| 85% | 6.96 | 110 nM | Cc1cc(C)c2c(n1)sc1c(NCc3ccco3)nn(C)c12 [Compound 40, N-(furan-2-ylmethyl)-1,6,8-trimethyl-1H-pyrazolo[3′,4′:4,5]thieno[2,3-b]pyridin-3-amine] |
| 87% | 6.11 | 780 nM | Cc1cc(C)c2c(n1)sc1c(NC(C)C)nn(C)c12 [Compound 41, N-isopropyl-1,6,8-trimethyl-1H-pyrazolo[3′,4′:4,5]thieno[2,3-b]pyridin-3-amine] |
| 93% | 6.82 | 150 nM | Cc1cc(C)c2c(n1)sc1c(NCc3ccncc3)nn(C)c12 [Compound 42, 1,6,8-trimethyl-N-(pyridin-4-ylmethyl)-1H-pyrazolo[3′,4′:4,5]thieno[2,3-b]pyridin-3-amine] |
| 64% | 5.35 | 4500 nM | Cc1ccc2c(n1)sc1c(NCC3CC3)n[nH]c12 [Compound 43, N-(cyclopropylmethyl)-6-methyl-1H-pyrazolo[3′,4′:4,5]thieno[2,3-b]pyridin-3-amine] |
| 62% | 5.30 | 5000 nM | Cc1ccc2c(n1)sc1c(NCc3ccco3)n[nH]c12 [Compound 44, N-(furan-2-ylmethyl)-6-methyl-1H-pyrazolo[3′,4′:4,5]thieno[2,3-b]pyridin-3-amine] |
| 37% | <5.00 | > 10000 nM | Cc1ccc2c(n1)sc1c(NC(C)C)n[nH]c12 [Compound 45, N-isopropyl-6-methyl-1H-pyrazolo[3′,4′:4,5]thieno[2,3-b]pyridin-3-amine] |
